Source: ChEMBL document CHEMBL1201862, “PubChem BioAssay data set” (2004)
The source made the active and inactive calls.

Legend:
[1] = biological target: T1, SUMO-activating enzyme (Homo sapiens, UniProt Q9UBT2); assay: SUMOylation inhibitor hit validation, confirmation, SUMOylation inhibitor project, biochemical, AlphaScreen (AID 2018); format: functional
[2] = biological target: Large T antigen (Simian virus 40, UniProt P03070); format: functional, Betapolyomavirus macacae;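 further: Confirmatory-stage PubChem screen for compounds that inhibit SV40 T antigen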
[3] = biological target: T1, SUMO-activating enzyme; assay: inhibitors of in vitro SUMOylation cascade, primary screen, biochemical, HTRF, uHTS (AID 2006); format: protein-complex assay
[4] = biological target: Intestinal-type alkaline phosphatase (Homo sapiens, UniProt P09923); assay: activation of human intestinal alkaline phosphatase – biochemical, dose response (AID 488873); format: functional
[5] = biological target: Intestinal-type alkaline phosphatase (Mus musculus, UniProt P24822); assay: mouse intestinal alkaline phosphatase activators, dose response, biochemical, luminescence, uHTS hits (AID 488783); format: functional
[6] = biological target: T2, Alkaline phosphatase, tissue-nonspecific isozyme (Homo sapiens, UniProt P05186); assay: TNAP enzyme activators, dose response, selectivity assay for mouse IAP activator project, biochemical, TNAP isozyme, mouse IAP uHTS hits (AID 488880); format: functional
T2 sequence (P05186 whole entry): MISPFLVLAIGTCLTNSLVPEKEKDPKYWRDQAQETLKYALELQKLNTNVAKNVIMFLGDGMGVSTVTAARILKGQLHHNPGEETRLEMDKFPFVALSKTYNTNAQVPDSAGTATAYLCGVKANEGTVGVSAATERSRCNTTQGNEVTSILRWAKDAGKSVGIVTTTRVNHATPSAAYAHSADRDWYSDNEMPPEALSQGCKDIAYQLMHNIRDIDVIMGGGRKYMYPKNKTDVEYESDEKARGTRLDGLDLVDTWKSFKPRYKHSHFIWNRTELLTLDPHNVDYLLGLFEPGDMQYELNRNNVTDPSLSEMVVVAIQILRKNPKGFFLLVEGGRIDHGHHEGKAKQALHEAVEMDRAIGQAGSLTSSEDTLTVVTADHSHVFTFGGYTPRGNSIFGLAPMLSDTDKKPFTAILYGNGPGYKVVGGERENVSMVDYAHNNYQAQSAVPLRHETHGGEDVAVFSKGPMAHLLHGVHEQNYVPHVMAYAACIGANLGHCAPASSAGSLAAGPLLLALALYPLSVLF

[7] = THP-1 cell cytotoxicity, dose response, cytotoxicity control for non-replicating M. tuberculosis project (AID 489025); format: functional
[8] = biological target: T3, Protein RecA (Mycobacterium tuberculosis, UniProt P9WHJ3); assay: GFP-RecA MOA-DTT Measured in Biochemical System Using Plate Reader - 2047-05_Inhibitor_Dose_DryPowder_Activity. [Related pubchem assays (depositor defined):AID2223]; design: species or system Mycobacterium tuberculosis H37Rv
T3 sequence (P9WHJ3 whole entry): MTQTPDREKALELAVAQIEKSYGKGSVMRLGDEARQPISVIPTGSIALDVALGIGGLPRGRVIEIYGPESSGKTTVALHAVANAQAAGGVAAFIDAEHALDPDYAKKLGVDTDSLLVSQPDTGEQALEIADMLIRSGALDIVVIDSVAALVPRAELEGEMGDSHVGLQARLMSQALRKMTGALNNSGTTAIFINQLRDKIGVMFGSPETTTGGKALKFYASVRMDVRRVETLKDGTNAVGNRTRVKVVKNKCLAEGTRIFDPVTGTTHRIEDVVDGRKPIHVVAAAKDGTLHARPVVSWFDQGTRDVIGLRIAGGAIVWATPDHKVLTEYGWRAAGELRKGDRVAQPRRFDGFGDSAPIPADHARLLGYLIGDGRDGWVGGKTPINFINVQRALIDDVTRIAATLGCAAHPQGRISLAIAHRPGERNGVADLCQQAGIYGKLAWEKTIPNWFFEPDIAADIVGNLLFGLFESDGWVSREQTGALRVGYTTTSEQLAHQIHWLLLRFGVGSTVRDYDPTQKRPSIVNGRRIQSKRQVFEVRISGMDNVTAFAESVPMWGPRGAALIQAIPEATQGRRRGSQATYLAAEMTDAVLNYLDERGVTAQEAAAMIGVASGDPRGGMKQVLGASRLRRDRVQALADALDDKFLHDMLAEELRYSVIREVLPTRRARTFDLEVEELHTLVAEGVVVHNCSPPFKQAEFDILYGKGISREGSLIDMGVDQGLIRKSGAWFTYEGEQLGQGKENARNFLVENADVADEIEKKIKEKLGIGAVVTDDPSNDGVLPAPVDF

[9] = Vero E6 cell cytotoxicity, dose response, cytotoxicity control for non-replicating M. tuberculosis project, secondary assay (AID 492998); format: functional, VeroE6; settings: Vero C1008
[10] = biological target: Nonstructural protein 1 (Influenza A virus, UniProt Q194T2); format: functional, Influenza A virus (A/California/07/2009(H1N1))
[11] = Intein inhibitors as potential Tuberculosis drugs, a cytotoxicity screen. [Related pubchem assays (depositor defined):AID2221, AID2223, AID434968, AID435010, AID449749, AID449750, AID489010]; format: functional
[12] = biological target: T4, Replicative DNA helicase DnaB (Mycobacterium tuberculosis, UniProt P9WMR3); assay: DnaB Intein secondary assay Measured in Biochemical System Using Plate Reader - 2047-04_Inhibitor_Dose_DryPowder_Activity. [Related pubchem assays (depositor defined):AID2223]
T4 sequence (P9WMR3 whole entry): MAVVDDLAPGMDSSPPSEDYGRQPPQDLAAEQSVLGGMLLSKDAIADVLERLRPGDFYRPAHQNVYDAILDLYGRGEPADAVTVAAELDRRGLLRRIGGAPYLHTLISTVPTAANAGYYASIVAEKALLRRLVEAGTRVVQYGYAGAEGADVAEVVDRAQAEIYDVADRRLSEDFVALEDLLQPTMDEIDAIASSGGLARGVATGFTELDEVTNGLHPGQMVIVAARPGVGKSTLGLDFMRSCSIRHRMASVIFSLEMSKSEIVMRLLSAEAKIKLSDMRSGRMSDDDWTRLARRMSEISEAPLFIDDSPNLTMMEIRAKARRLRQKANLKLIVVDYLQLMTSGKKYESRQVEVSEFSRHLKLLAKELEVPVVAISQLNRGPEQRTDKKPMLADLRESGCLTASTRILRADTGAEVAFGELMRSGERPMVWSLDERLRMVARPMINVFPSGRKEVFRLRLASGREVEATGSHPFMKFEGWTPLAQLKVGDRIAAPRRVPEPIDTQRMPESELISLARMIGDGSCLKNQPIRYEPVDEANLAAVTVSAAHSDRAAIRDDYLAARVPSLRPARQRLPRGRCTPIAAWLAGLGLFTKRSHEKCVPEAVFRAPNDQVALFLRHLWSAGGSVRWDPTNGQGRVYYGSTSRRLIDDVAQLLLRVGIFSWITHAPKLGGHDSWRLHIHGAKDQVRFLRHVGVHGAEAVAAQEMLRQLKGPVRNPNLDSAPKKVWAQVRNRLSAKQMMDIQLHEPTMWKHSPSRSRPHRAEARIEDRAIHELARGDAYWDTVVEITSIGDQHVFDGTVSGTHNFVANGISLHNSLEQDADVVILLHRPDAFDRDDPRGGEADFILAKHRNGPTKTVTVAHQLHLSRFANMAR

[13] = biological target: T5, Microphthalmia-associated transcription factor (Homo sapiens, UniProt O75030); assay: TRPM1 promoter luciferase signal decrease, dose response, MITF inhibitor project, cell-based, SK-MEL-5, cherry-picked, set 3 (AID 493073); format: functional
T5 sequence (O75030 whole entry): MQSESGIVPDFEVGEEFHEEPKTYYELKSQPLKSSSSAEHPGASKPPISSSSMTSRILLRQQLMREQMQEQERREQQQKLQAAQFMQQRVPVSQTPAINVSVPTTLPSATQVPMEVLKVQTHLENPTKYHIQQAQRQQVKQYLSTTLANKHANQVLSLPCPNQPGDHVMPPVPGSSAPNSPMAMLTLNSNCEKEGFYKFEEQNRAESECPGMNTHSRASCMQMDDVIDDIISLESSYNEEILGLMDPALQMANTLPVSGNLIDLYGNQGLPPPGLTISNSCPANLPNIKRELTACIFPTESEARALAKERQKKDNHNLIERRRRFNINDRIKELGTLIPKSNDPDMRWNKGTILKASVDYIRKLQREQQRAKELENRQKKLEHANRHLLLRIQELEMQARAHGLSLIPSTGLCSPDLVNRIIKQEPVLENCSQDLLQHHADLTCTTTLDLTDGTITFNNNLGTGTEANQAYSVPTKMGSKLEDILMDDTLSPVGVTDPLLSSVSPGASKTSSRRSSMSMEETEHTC

[14] = biological target: T3, Protein RecA; assay: RecA Intein Measured in Biochemical System Using Plate Reader - 2047-02_Inhibitor_Dose_DryPowder_Activity. [Related pubchem assays (depositor defined):AID2223]; design: species or system Mycobacterium tuberculosis H37Rv
[15] = cells; format: functional
[16] = biological target: T4, Replicative DNA helicase DnaB; assay: DnaB intein splicing inhibitors, dose response, biochemical, cell-free fluorescence (AID 449749); format: functional
[17] = biological target: T3, Protein RecA; assay: Fluorescence Cell-Free Homogeneous Dose Retest to Identify Inhibitors of RecA-Intein Splicing Activity. [Related pubchem assays (depositor defined):AID2097, AID2223, AID489010, AID492950]; format: functional
[18] = biological target: T6, Tyrosine-protein phosphatase non-receptor type 22 (Homo sapiens, UniProt Q9Y2R2); assay: SAR LYP1 Fluorescent Assay using pCAP substrate for In Vitro dose response studies - Set 2. [Related pubchem assays (depositor defined):AID1779, AID1784, AID2135, AID449727]; format: functional
T6 sequence (Q9Y2R2 whole entry): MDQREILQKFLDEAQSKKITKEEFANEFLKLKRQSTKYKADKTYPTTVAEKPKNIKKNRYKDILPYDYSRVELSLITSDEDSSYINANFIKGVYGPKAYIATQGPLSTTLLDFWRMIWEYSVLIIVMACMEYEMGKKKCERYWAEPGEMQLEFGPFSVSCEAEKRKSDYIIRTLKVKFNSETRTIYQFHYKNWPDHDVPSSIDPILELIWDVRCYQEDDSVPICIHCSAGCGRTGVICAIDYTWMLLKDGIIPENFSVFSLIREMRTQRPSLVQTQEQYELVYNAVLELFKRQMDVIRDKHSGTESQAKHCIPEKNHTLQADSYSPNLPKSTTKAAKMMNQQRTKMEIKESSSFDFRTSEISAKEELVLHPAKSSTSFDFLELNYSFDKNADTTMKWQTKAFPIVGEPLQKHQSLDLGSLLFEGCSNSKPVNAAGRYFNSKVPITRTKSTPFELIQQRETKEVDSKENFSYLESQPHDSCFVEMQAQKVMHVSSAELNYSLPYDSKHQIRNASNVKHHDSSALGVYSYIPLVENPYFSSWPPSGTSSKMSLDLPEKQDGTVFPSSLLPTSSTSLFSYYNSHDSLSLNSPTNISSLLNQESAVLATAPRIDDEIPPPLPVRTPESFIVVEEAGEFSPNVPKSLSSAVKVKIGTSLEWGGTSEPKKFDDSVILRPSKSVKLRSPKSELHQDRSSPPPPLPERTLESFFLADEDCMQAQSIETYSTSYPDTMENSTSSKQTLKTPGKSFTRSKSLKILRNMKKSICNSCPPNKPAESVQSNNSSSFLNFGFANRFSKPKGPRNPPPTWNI

[19] = biological target: Tyrosine-protein phosphatase non-receptor type 12 (Homo sapiens, UniProt Q05209); assay: SAR Selectivity Analysis of small molecule inhibitors of PEST using pCAP in a fluorescence assay. [Related pubchem assays (depositor defined):AID1779, AID1784, AID2135]; format: functional
[20] = biological target: T6, Tyrosine-protein phosphatase non-receptor type 22; assay: SAR LYP1 Fluorescent Assay using OMFP substrate for In Vitro dose response studies - Set 3. [Related pubchem assays (depositor defined):AID1779, AID1784, AID2140, AID2686]; format: functional
[21] = biological target: T7, Tyrosine-protein phosphatase non-receptor type 7 (Homo sapiens, UniProt P35236); assay: HePTP (PTPN7) phosphatase inhibitor potency, SAR follow-up, biochemical, set 2 (AID 449736); format: functional
T7 sequence (P35236 whole entry): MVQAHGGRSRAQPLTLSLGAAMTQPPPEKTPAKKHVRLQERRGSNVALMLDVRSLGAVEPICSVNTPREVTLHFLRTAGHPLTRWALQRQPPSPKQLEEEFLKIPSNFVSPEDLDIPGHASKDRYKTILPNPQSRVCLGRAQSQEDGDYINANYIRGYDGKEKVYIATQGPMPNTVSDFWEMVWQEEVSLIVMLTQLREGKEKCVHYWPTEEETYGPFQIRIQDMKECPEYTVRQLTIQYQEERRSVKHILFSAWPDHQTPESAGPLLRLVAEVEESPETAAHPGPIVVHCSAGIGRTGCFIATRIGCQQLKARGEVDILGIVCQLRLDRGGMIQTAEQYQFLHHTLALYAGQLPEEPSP

[22] = biological target: T6, Tyrosine-protein phosphatase non-receptor type 22; assay: LYP (PTPN22) phosphatase inhibitor potency, SAR follow-up, biochemical, pCAP fluorogenic substrate, fluorescence, set 3 (AID 449727); format: functional
[23] = biological target: T6, Tyrosine-protein phosphatase non-receptor type 22; assay: PubChem AID 2135
[24] = biological target: T6, Tyrosine-protein phosphatase non-receptor type 22; assay: PubChem AID 2140
[25] = biological target: T6, Tyrosine-protein phosphatase non-receptor type 22; assay: SAR LYP1 Fluorescent Assay using OMFP substrate for In Vitro dose response studies - Set 2. [Related pubchem assays (depositor defined):AID1779, AID1784, AID2140, AID449726, AID488869]; format: functional

T1 sequence (Q9UBE0 whole entry): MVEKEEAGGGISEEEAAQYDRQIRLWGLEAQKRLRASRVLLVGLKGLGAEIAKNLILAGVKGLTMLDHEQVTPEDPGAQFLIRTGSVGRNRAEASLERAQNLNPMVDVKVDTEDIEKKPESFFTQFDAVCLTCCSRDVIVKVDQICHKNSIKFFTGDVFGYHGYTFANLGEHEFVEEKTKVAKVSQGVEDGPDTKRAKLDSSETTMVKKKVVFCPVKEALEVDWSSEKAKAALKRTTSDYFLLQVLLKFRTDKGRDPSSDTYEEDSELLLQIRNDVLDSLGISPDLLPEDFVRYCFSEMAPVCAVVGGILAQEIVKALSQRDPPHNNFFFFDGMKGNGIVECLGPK
T1 sequence (Q9UBT2 whole entry): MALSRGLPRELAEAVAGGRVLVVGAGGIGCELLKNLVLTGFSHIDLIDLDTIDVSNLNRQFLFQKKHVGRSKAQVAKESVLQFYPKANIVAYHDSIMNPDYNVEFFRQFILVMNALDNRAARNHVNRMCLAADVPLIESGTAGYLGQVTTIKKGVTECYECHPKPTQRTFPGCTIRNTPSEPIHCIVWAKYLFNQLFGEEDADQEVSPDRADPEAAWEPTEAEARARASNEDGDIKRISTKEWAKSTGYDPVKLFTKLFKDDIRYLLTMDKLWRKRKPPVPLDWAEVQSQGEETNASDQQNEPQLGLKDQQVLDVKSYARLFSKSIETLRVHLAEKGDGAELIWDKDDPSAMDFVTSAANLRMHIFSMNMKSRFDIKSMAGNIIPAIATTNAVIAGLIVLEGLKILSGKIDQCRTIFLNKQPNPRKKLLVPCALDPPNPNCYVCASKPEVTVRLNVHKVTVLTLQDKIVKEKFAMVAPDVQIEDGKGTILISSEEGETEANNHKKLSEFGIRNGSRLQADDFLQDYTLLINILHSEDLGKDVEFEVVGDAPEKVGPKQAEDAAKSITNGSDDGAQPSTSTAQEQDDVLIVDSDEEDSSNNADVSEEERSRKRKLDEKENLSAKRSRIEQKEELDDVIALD
Large T antigen, sequence (P03070 whole entry): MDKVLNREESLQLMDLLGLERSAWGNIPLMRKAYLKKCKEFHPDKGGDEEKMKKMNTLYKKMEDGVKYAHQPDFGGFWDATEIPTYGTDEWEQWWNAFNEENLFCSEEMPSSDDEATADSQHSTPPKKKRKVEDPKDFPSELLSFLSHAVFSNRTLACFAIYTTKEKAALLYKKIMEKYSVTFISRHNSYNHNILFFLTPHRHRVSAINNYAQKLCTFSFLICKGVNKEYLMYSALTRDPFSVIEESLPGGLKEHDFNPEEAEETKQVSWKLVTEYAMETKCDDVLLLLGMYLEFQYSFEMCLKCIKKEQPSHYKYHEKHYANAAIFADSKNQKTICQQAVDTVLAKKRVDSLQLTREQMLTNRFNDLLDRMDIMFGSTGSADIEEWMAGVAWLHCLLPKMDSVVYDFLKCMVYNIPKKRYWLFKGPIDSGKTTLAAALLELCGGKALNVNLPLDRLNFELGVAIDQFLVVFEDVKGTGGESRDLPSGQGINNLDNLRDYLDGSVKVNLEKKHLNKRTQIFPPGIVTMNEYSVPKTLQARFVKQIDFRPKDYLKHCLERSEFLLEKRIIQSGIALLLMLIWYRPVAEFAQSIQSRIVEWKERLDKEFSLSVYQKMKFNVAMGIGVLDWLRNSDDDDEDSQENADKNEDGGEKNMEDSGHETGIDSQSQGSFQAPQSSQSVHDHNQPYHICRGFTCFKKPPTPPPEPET
Nonstructural protein 1, sequence (Q194T2 whole entry): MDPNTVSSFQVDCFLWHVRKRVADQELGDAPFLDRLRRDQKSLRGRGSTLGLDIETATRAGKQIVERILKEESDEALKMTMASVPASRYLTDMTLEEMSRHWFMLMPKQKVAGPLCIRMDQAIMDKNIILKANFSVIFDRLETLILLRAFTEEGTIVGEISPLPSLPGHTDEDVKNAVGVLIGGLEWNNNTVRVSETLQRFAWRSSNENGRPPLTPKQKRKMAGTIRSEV
Intestinal-type alkaline phosphatase (Mus musculus, UniProt P24822), sequence (P24822 whole entry): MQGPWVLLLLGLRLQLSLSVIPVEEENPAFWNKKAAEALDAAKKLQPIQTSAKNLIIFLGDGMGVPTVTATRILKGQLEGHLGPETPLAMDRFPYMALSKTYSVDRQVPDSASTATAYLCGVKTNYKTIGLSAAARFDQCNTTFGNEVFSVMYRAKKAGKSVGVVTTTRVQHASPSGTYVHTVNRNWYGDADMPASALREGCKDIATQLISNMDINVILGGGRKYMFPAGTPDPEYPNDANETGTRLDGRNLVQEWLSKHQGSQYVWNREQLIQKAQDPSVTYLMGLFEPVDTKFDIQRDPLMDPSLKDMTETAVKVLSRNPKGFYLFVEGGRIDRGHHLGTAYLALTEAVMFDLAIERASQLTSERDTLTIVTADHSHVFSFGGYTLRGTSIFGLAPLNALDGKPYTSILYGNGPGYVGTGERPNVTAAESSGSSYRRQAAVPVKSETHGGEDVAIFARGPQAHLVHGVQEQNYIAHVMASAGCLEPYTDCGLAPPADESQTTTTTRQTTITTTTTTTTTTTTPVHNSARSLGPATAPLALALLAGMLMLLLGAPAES
Intestinal-type alkaline phosphatase (Homo sapiens, UniProt P09923), sequence (P09923 whole entry): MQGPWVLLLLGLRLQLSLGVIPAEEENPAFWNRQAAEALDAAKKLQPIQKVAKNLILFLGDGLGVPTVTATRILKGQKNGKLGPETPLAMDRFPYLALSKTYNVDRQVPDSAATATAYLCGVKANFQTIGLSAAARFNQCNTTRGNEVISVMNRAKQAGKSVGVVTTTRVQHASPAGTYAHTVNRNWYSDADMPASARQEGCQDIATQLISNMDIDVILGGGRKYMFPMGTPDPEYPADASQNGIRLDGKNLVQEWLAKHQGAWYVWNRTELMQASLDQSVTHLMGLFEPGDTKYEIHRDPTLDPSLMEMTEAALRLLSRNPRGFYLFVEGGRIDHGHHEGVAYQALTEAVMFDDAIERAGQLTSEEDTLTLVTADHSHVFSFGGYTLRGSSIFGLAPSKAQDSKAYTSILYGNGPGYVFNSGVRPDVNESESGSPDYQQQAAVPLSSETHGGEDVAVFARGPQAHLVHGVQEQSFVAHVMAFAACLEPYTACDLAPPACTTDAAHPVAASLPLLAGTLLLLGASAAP
Tyrosine-protein phosphatase non-receptor type 12, sequence (Q05209 whole entry): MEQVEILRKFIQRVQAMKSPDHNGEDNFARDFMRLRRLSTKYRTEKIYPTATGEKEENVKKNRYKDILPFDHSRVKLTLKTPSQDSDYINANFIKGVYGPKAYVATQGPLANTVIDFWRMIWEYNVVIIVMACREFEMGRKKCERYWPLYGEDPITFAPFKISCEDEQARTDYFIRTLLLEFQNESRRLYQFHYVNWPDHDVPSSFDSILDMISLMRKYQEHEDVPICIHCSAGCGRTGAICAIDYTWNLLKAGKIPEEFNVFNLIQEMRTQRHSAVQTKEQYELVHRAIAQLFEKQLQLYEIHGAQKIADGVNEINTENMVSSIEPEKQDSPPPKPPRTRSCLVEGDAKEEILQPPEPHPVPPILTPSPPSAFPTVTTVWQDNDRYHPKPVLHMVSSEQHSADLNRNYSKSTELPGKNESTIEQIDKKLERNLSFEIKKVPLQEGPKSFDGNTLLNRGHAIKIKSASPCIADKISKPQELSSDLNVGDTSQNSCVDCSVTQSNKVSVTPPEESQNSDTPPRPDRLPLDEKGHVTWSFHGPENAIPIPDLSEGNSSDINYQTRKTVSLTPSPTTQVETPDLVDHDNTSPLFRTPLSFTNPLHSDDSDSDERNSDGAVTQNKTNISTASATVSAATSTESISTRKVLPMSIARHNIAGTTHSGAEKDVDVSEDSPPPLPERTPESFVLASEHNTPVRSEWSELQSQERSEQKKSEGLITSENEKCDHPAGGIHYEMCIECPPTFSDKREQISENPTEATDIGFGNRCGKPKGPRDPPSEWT

O=C(CCN1C(=O)/C(=C/c2ccco2)SC1=S)Nc1ccc(C(=O)O)c(O)c1
IC50 [1]: 1.46 µM (active) | IC50 [2]: 56.1 µM (active) | IC50 [3]: 14.3 µM (active) | EC50 [4]: 66.2 µM (active) | EC50 [5]: 7.32 µM (active) | EC50 [6]: 84.9 µM (active)

Cc1ccccc1-n1ncc2c([N+](=O)[O-])cc([N+](=O)[O-])cc21
CC50 [7]: > 40 µM (active) | AC50 [8]: 232 µM (active) | CC50 [9]: > 20 µM (active) | IC50 [10]: 31.1 µM (active) | CC50 [11]: 30.8 µM (active) | AC50 [12]: 5.7 µM (active) | AC50 [13]: 8.7 µM (active) | AC50 [14]: 2.19 µM (active) | IC50 [15]: 950 nM (active) | AC50 [16]: 3.15 µM (active) | EC50 [17]: 911 nM (active)

COc1cc(/C=C(\C#N)c2ccc(F)cc2)ccc1OCc1ccc(C(=O)O)cc1
IC50 [18]: 33.9 µM (active) | IC50 [19]: 22.1 µM (active) | IC50 [20]: 94.2 µM (active) | IC50 [21]: 7.01 µM (active) | IC50 [22]: 61.2 µM (active) | IC50 [23]: 59.2 µM (active) | IC50 [24]: > 100 µM (inactive) | IC50 [25]: 35.5 µM (active)
